The structures appear in SMILES notation. Read-outs that look alike come from different tables or passages of the source. Bounds are passed on as bounds.

Results on 21 compounds are retold here after US20240270699A1, “COMPOUNDS HAVING N-ARYLPYRIMIDIN-2-AMINE DERIVATIVES AS THERAPEUTIC AGENTS” (Lomond Therapeutics, Inc., priority 2021, published 2024).

The target in one data set is T1, recombinant HPK1 protein (Homo sapiens, UniProt Q92918).
T1 construct: purchased Promega V6398
T1 sequence (Q92918 1-346 limits assumed): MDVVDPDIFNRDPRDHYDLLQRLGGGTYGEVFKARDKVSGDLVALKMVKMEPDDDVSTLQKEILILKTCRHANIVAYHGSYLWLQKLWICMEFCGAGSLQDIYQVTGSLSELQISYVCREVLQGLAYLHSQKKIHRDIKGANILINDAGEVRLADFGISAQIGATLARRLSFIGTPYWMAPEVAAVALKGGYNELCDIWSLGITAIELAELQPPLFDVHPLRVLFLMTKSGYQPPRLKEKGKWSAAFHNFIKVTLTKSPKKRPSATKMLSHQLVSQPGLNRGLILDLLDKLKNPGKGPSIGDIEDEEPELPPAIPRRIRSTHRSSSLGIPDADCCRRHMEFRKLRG
The data set is described as follows: Primary assay of HPK1 enzymatic activity inhibition (ADP-Glo luminescence). Type of data set: biochemical. The following applies: recombinant HPK1, MBP substrate, 1 hour at room temperature. Background: ADP-Glo turns the ADP formed in a reaction into a luminescent signal.

The test system of another data set is Jurkat cells. The data set is described as follows: IL-2 release Jurkat assay (anti-CD3/anti-CD28 stimulation, IL-2 ELISA). It counts as cell-based, human. The following applies: activation with 400 ng/mL aCD3 + 400 ng/mL aCD28, 24 hours. For orientation: In an ELISA, binding on a coated surface is turned into a signal by an enzyme label.
Data set [1] is described as follows: Pharmacokinetic (PK) study in mice. The following applies: mouse, plasma, male CD-1 mice, PO 10 mg/kg, solution, vs IV 2 mg/kg, read-out: Fabs, % (percent bioavailability). It counts as in vivo.
[2] abbreviates: Table C: Jurkat, 6 μM of tested compounds, stimulated vehicle = A.
The mark [3] stands for this setting: Table B: Jurkat, 1.5 μM of tested compounds.
The mark [4] stands for this setting: vehicle 80% PEG400, 10% TPGS and 10% ethanol.
[5] abbreviates: Table E: Jurkat, 1.5 μM of tested compounds.
Where [6] appears, read: Table F: Jurkat, 1.0 μM of tested compounds.

One may read the IC50 as the concentration that inhibits the measured activity by half. In general, bioavailability refers to dose-corrected exposure relative to a reference, in per cent. With `CS(=O)(=O)c1ccc(Nc2ncc(-c3nnco3)c(N[C@H](CO)c3ccccc3)n2)cc1F` [Compound 161, (2S)-2-{[2-{[3-fluoro-4-(methylsulfonyl)phenyl]amino}-5-(1,3,4-oxadiazol-2-yl)pyrimidin-4-yl]amino}-2-phenylethanol], the IC50 at recombinant HPK1 protein was less than 50 nM. In addition, in the data set on Jurkat cells (setting [2]), the “IL-2, pg/mL stimulated” value was “C (100 pg/mL≤IL-2<150 pg/mL)”. In addition, in data set [1] (vehicle 20% HP-b-CD), the bioavailability stood at 95.1%.
With `O=C1CCc2cc(Nc3ncc(-c4nnco4)c(N[C@H](CO)c4ccccc4)n3)ccc2N1` [Compound 19, 6-[[4-[[(1S)-2-hydroxy-1-phenyl-ethyl]amino]-5-(1,3,4-oxadiazol-2-yl)pyrimidin-2-yl]amino]-3,4-dihydro-1H-quinolin-2-one], the IC50 at recombinant HPK1 protein is less than 50 nM. The “IL-2, pg/mL stimulated” value with Jurkat cells (setting [3]) is “B (5.0 pg/mL≤IL-2<25.0 pg/mL)”. Also, the bioavailability in data set [1] (setting [4]) worked out at 16.3%.
On to `Cc1noc(-c2cnc(Nc3ccc4c(c3)CNC4=O)nc2N[C@H](CO)c2ccccc2)n1` [Compound 571, 5-[[4-[[(1S)-2-hydroxy-1-phenyl-ethyl]amino]-5-(3-methyl-1,2,4-oxadiazol-5-yl)pyrimidin-2-yl]amino]isoindolin-1-one], for which the IC50 at recombinant HPK1 protein is less than 50 nM. Moreover, in the data set with Jurkat cells (setting [3]), the “IL-2, pg/mL stimulated” value is “C (25.0 pg/mL≤IL-2<35.0 pg/mL)”. For the same compound, in data set [1] (setting [4]), the bioavailability was found to be 8%.
`O=S1(=O)CCCc2cc(Nc3ncc(-c4nnco4)c(N[C@H](CO)c4ccccc4)n3)ccc21` [Compound 228, (2S)-2-[[2-[(1,1-dioxo-3,4-dihydro-2H-thiochromen-6-yl)amino]-5-(1,3,4-oxadiazol-2-yl)pyrimidin-4-yl]amino]-2-phenyl-ethanol]: on recombinant HPK1 protein, the IC50 was less than 50 nM. The “IL-2, pg/mL stimulated” value in the data set with Jurkat cells (setting [5]) is “B (50 pg/mL≤IL-2<100 pg/mL)”. In addition, in data set [1] (setting [4]), the bioavailability was 11.4%.
Turning to `Cc1noc(-c2cnc(Nc3ccc(S(C)(=O)=O)c(F)c3)nc2N[C@H](CO)c2ccccc2)n1` [Compound 270, (2S)-2-{[2-{[3-fluoro-4-(methylsulfonyl)phenyl]amino}-5-(3-methyl-1,2,4-oxadiazol-5-yl)pyrimidin-4-yl]amino}-2-phenylethanol], the IC50 on recombinant HPK1 protein is less than 50 nM. The “IL-2, pg/mL stimulated” value in the data set on Jurkat cells (setting [2]) is reported as “A (IL-2<50 pg/mL)”. Moreover, the bioavailability in data set [1] (setting [4]) is 76.5%.
For `O=C1NCCc2cc(Nc3ncc(-c4nnco4)c(N[C@H](CO)c4ccccc4)n3)ccc21` [Compound 563, 6-[[4-[[(1S)-2-hydroxy-1-phenyl-ethyl]amino]-5-(1,3,4-oxadiazol-2-yl)pyrimidin-2-yl]amino]-3,4-dihydro-2H-isoquinolin-1-one], the IC50 on recombinant HPK1 protein was less than 50 nM. The bioavailability in data set [1] (setting [4]) was 9.2%.
Consider `Cc1noc(-c2cnc(Nc3ccc4c(c3)C(C)(C)NC4=O)nc2N[C@H](CO)c2ccccc2)n1` [Compound 579, 5-[[4-[[(1S)-2-hydroxy-1-phenyl-ethyl]amino]-5-(3-methyl-1,2,4-oxadiazol-5-yl)pyrimidin-2-yl]amino]-3,3-dimethyl-isoindolin-1-one], for which the IC50 on recombinant HPK1 protein was less than 50 nM. The “IL-2, pg/mL stimulated” value in the data set with Jurkat cells (setting [6]) is reported as “A (IL-2<50 pg/mL)”.
As for `CS(=O)(=O)c1ccc(Nc2ncc(C(N)=O)c(N[C@H](CO)c3ccccc3)n2)cc1F` [Compound 31, 2-{[3-fluoro-4-(methylsulfonyl)phenyl]amino}-4-{[(1S)-2-hydroxy-1-phenylethyl]amino}pyrimidine-5-carboxamide], the IC50 at recombinant HPK1 protein lay in the range of 50 to 200 nM. Moreover, the “IL-2, pg/mL stimulated” value in the data set on Jurkat cells (setting [3]) is given as “C (25.0 pg/mL≤IL-2<35.0 pg/mL)”.
Take `CCOC(=O)c1cnc(Nc2ccc(S(C)(=O)=O)cc2)nc1N[C@H](CO)c1ccccc1` [Compound 68, Ethyl 4-{[(1S)-2-hydroxy-1-phenylethyl]amino}-2-{[4-(methylsulfonyl)-phenyl]amino}pyrimidine-5-carboxylate]: the IC50 at recombinant HPK1 protein is less than 50 nM. Also, in the data set with Jurkat cells (setting [3]), the “IL-2, pg/mL stimulated” value is recorded as “D (35.0 pg/mL≤IL-2)”.
Take `Cc1cc(Nc2ncc(C(=O)N(C)C)c(N[C@H](CO)c3ccccc3)n2)ccc1S(C)(=O)=O` [Compound 157, 4-[[(1S)-2-hydroxy-1-phenyl-ethyl]amino]-N,N-dimethyl-2-(3-methyl-4-methylsulfonyl-anilino)pyrimidine-5-carboxamide]: the IC50 at recombinant HPK1 protein lay in the range of 200 to 500 nM. The “IL-2, pg/mL stimulated” value in the data set with Jurkat cells (setting [2]) is “C (100 pg/mL≤IL-2<150 pg/mL)”.
As for `COc1cccc([C@@H](CO)Nc2nc(Nc3ccc4c(c3)CCNC4=O)ncc2-c2nc(C)no2)c1` [Compound 575, 6-[[4-[[(1S)-2-hydroxy-1-(3-methoxyphenyl)ethyl]amino]-5-(3-methyl-1,2,4-oxadiazol-5-yl)pyrimidin-2-yl]amino]-3,4-dihydro-2H-isoquinolin-1-one], on recombinant HPK1 protein, the IC50 was less than 50 nM. For the same compound, the “IL-2, pg/mL stimulated” value in the data set with Jurkat cells (setting [5]) is given as “C (100 pg/mL≤IL-2<150 pg/mL)”.
As to `CN(C)Cc1noc(-c2cnc(Nc3ccc4c(c3)CCCS4(=O)=O)nc2N[C@H](CO)c2ccccc2)n1` [Compound 583, (2S)-2-[[5-[3-[(dimethylamino)methyl]-1,2,4-oxadiazol-5-yl]-2-[(1,1-dioxo-3,4-dihydro-2H-thiochromen-6-yl)amino]pyrimidin-4-yl]amino]-2-phenyl-ethanol], at recombinant HPK1 protein, the IC50 is less than 50 nM. Also, in the data set on Jurkat cells (setting [6]), the “IL-2, pg/mL stimulated” value is “B (50 pg/mL≤IL-2<100 pg/mL)”.
Regarding `CCOC(=O)c1cnc(Nc2ccc(C(N)=O)c(Cl)c2)nc1N[C@H](CO)c1ccccc1` [Compound 559, Ethyl 2-(4-carbamoyl-3-chloro-anilino)-4-[[(1S)-2-hydroxy-1-phenyl-ethyl]amino]pyrimidine-5-carboxylate], the IC50 on recombinant HPK1 protein is less than 50 nM. Further, the “IL-2, pg/mL stimulated” value with Jurkat cells (Table D: Jurkat, 6 μM of tested compounds, stimulated vehicle = B) is “D (150 pg/mL≤IL-2)”.
For `COCCNC(=O)c1cnc(Nc2ccc(S(C)(=O)=O)c(C)c2)nc1N[C@H](CO)c1ccccc1` [Compound 372, 4-[[(1S)-2-hydroxy-1-phenyl-ethyl]amino]-N-(2-methoxyethyl)-2-(3-methyl-4-methylsulfonyl-anilino)pyrimidine-5-carboxamide], the half-maximal inhibitory concentration (IC50) at recombinant HPK1 protein fell in the range of 200 to 500 nM. For the same compound, the “IL-2, pg/mL stimulated” value with Jurkat cells (setting [2]) is “C (100 pg/mL≤IL-2<150 pg/mL)”.
Consider `CC(C)NC(=O)c1cnc(Nc2ccc(S(C)(=O)=O)c(F)c2)nc1N[C@H](CO)c1ccccc1` [Compound 301, 2-{[3-fluoro-4-(methylsulfonyl)phenyl]amino}-4-{[(1S)-2-hydroxy-1-phenylethyl]amino}-N-(propan-2-yl)pyrimidine-5-carboxamide], for which, on recombinant HPK1 protein, the IC50 was in the range of 200 to 500 nM. For the same compound, the “IL-2, pg/mL stimulated” value with Jurkat cells (setting [3]) is listed as “A (IL-2<5.0 pg/mL)”.
On to `CNC(=O)c1cnc(Nc2ccc(F)c(-c3ccccc3)c2)nc1N[C@H](CO)c1ccccc1` [Compound 82, 2-[(6-fluorobiphenyl-3-yl)amino]-4-{[(1S)-2-hydroxy-1-phenylethyl]amino}-N-methylpyrimidine-5-carboxamide], for which the IC50 at recombinant HPK1 protein was in the range of 50 to 200 nM. For the same compound, in the data set with Jurkat cells (setting [3]), the “IL-2, pg/mL stimulated” value is “C (25.0 pg/mL≤IL-2<35.0 pg/mL)”.
As to `CCOC(=O)c1cnc(Nc2ccc(S(C)(=O)=O)cc2C)nc1N[C@H](CO)c1ccccc1` [Compound 167, Ethyl 4-{[(1S)-2-hydroxy-1-phenylethyl]amino}-2-{[2-methyl-4-(methylsulfonyl)phenyl]amino}pyrimidine-5-carboxylate], the IC50 on recombinant HPK1 protein fell in the range of 200 to 500 nM. The “IL-2, pg/mL stimulated” value with Jurkat cells (setting [2]) is listed as “B (50 pg/mL≤IL-2<100 pg/mL)”.
In the case of `CCOC(=O)c1cnc(Nc2ccc(S(C)(=O)=O)c(F)c2)nc1N[C@H](CO)c1ccccc1` [Compound 210, Ethyl 2-{[3-fluoro-4-(methylsulfonyl)phenyl]amino}-4-{[(1S)-2-hydroxy-1-phenylethyl]amino}pyrimidine-5-carboxylate], the IC50 at recombinant HPK1 protein was in the range of 200 to 500 nM. For the same compound, the “IL-2, pg/mL stimulated” value in the data set with Jurkat cells (setting [3]) is on record as “D (35.0 pg/mL≤IL-2)”.
With `CCOC(=O)c1cnc(Nc2ccc3c(c2)CCCS3(=O)=O)nc1N[C@H](CO)c1ccccc1` [Compound 573, ethyl 2-[(1,1-dioxo-3,4-dihydro-2H-thiochromen-6-yl)amino]-4-[[(1S)-2-hydroxy-1-phenyl-ethyl]amino]pyrimidine-5-carboxylate], the IC50 on recombinant HPK1 protein is less than 50 nM. Besides, the “IL-2, pg/mL stimulated” value in the data set on Jurkat cells (setting [5]) is listed as “C (100 pg/mL≤IL-2<150 pg/mL)”.
Take `O=C(NCC(F)(F)F)c1cnc(Nc2ccc(F)c(-c3ccccc3)c2)nc1N[C@H](CO)c1ccccc1` [Compound 499, 2-[(6-fluorobiphenyl-3-yl)amino]-4-{[(1S)-2-hydroxy-1-phenylethyl]-amino}-N-(2,2,2-trifluoroethyl)pyrimidine-5-carboxamide]: the IC50 at recombinant HPK1 protein is 200 to 500 nM. The “IL-2, pg/mL stimulated” value in the data set with Jurkat cells (setting [3]) is given as “C (25.0 pg/mL≤IL-2<35.0 pg/mL)”.
For `Cc1noc(-c2cnc(Nc3ccc4c(c3)CCN(COCC[Si](C)(C)C)C4=O)nc2N[C@H](CO)c2ccccc2)n1` [Compound 582, 6-[[4-[[(1S)-2-hydroxy-1-phenyl-ethyl]amino]-5-(3-methyl-1,2,4-oxadiazol-5-yl)pyrimidin-2-yl]amino]-2-(2-trimethylsilylethoxymethyl)-3,4-dihydroisoquinolin-1-one], the IC50 on recombinant HPK1 protein is 50 to 200 nM. In addition, in the data set with Jurkat cells (setting [6]), the “IL-2, pg/mL stimulated” value was “B (50 pg/mL≤IL-2<100 pg/mL)”.
